Reference: patent US11471502B2, “Neuroprotective peptide” (UNIVERSITY COLLEGE CARDIFF C[…], priority 2017, dated 2022)
Entries after “also recorded” stand apart in the source; their conditions may differ.

Tests used:
[1] = test system: ERK signalling in the striatum; experiment: Single in vivo injection, IHC/immunofluorescence of nuclear and cytoplasmic ERK markers in striatum; set-up: species or system mouse; conditions: 1 h
Experimental: a) RB5 peptide selectively promoted activation of ERK2. Acute striatal slices either pre-treated with Scramble (SCR) or RB5 peptide (50 μM) and then stimulated 10 minutes with glutamate (GLU) (100 μM) or vehicle were analysed in Western blot (left panel) and probed with anti phospho ERK antibodies (p44^ERK1 and p42^ERK2) and anti ERK1/2 antibody. GAPDH was used as loading control. […] No changes were detected in the total ERK1 and ERK2 levels. GAPDH was used as loading control. […] Mice injected with a single dose of CPP-SCR or CPP-RB5 peptides (20 mg/kg, i.p.) were rapidly perfused 1 h later and brains were dissected and further analysed for IHC and immunofluorescence. Representative photomicrographs of pERK1/2, pMSK, pAch3, pELK1 and c-Fos expression in the striatum. […] Two-way ANOVA Bonferroni post hoc comparison: one black star, p<0.05, two black stars, p<0.01, one white star, p<0.001. p) Dose response curve of RB5 peptide for ERK activation. 200 μm thick striatal slices were freshly prepared from 2-month old mice and transferred into a perfusion chamber for 1 h at 32° C. Slices were pre-treated with different doses of RB5 or scrambled control. After 1 h, slices for each dose was fixed in PFA 4% for 15 min. 18 μm cryo-sections were processed for immunohistochemistry with anti-phospho p44/p42 MAP kinase. Neuronal quantification was performed with ImageJ software by counting the number of phospho-ERK positive cells in each slice. The level of activation is expressed on the Y-axis as arbitrary units (AU). Doses are reported in a logarithmic scale (Log 10) on the X-axis. The EC50 was calculated using GraphPad Prism software.
At the indicated times after drug treatments, animals were anaesthetised and transcardially perfused with ice-cold buffered 4% PFA. Brains were extracted, post-fixed overnight and transferred to 30% buffered sucrose for 24 h. Coronal sections were cut to a 35 μm thickness on a freezing microtome and stored in a cryoprotective solution at −20° C. until processing for immunohistochemistry or immunofluorescence.
1 h after CPP-RB5/CPP-SCR (20 mg/kg, i.p.) mice were anaesthetized and perfused via intracardiac infusion of ice-cold 4% PFA. Brains were rapidly extracted, post-fixed overnight and transferred to 25% buffered sucrose for 24 h. Coronal sections were cut at 30 μm thickness on a freezing microtome and stored in a cryoprotective solution at −20° C. until they were processed for immunohistochemistry. Free-floating sections were incubated with primary antibodies against anti-phospho-p44/42 MAP kinase (Thr202/Tyr204), anti-phospho-Elk-1 (Ser383), anti-phospho-Kv4.2 (Thr607)-R, anti-phospho-MSK-1, anti-phospho-MEK-1, c-Fos and Tyrosine Hydroxylase overnight at 4° C. Sections were then incubated with biotinylated goat anti-rabbit IgG (1:200, Vector Labs) for 2 h. Detection of the bound antibodies was carried out using a standard peroxidase-based method (ABC-kit, Vectastain, Vector Labs), followed by a DAB and H2O2 solution. Quantification of positive neurons were counted from striatum in 2-3 sections per mouse, bilaterally. Sample areas were visualized under a 20× objective in a Leica DM IRB microscope by a blind investigator to condition and counts per region were averaged across the sections using the ImageJ software.

[2] = test system: WT mice; experiment: Novel Object Recognition Test (NOR); format: in vivo, mouse; conditions: for memory formation and consolidation in NOR: 24, 48, 72 and 120 h (up to 5 days)
Experimental: a) After a 5 min habituation session in the empty arena on day 1, mice were injected with RB5 (20 mg/kg) or vehicle one hour before the training session with two identical objects on day 2 and were then evaluated for their long-term memory on subsequent days. Discrimination Index (D.I.) was tested at different time points 24, 48, 72, and 120 hrs (a) and also up to 168 h (b). […] On subsequent days, while the RB5 group remained high, the Scramble group returned to basal levels. *p<0.01**p<0.0001. […] At 24 h, D.I. of RB5 group was highly significant (Independent sample t-test t26=4.428 P<0.01, SCR (n=14) RB5 (=14)) as well as at 48 h (Independent sample t-test t38=4.210 P<0.0001, SCR (n=18) RB5 (=22)). […] P<0.001, P<0.01.
The test was performed in an open square box (45×45×45 cm), placed in a quiet room with dim light. The objects used were: parallelepipeds in metal and glass vials filled with water. They had no natural significance for mice and they had never been associated with reinforcement before. The protocol required three days and it was performed as follows:
First day: the mice were individually placed in the empty arena for 5 min in order to familiarize with it and to measure their anxiety (thigmotaxis trial). The percentage of thigmotaxis is calculated as the time spent in the peripheral zone out of the total time spent in the arena (300 sec.). Animals showing a thigmotaxis>90% are discarded from the sample because considered biased for anxiety.
Second day: Mice were injected with either […] CPP-SCR or CPP-RB5 1 h prior to training and then they were placed into the arena for 10 minutes, where they were allowed to explore two identical objects (training trial). Therefore, two different measures (in seconds) for Left Object and Right Object were obtained. […] Then, percentages of exploration for each object were calculated as: the time spent exploring LO or RO, out of the total time of exploration (RO+LO). According to these percentages, experimenter decided where to place the novel object for the test trial.
Third day: one of the two identical objects (Parallelepiped) was changed with a new object (Vial) and the mice were allowed to explore them for 10 minutes (test trial).
Times of exploration for the familiar object (FO) and for the novel object (NO) were separately recorded, with the same procedure as for the training trial. A cut-off of 6 seconds was also considered. In order to attest recognition memory, a discrimination index (D.I.) was calculated as (total time of exploration of NO−total time of exploration of FO)/total time of exploration of (FO+NO). D.I. index is comprised between −1 and +1. A D.I. of 1 would mean perfect memory retention for the […]. Conversely, the more time the animal spends exploring FO the lower will be the D.I. value, meaning poor memory retention for FO. SMART software (Panlab, Barcelona, Spain) was used to run the experiment.

Molecule	nuclear ERK-dependent signalling and gene transcription (pMSK, pAcH3, pELK, c-Fos) ([1]; 20 mg/kg i.p.)	striatal ERK phosphorylation (pERK1/2) ([1]; 20 mg/kg i.p.)	cytoplasmic signalling measured by ribosomal S6 phosphorylation ([1]; 20 mg/kg)	phosphorylation of voltage-gated potassium channel (pKv4.2) and MEK-1 ([1]; 20 mg/kg, vs CPP-SCR)	memory formation and consolidation in NOR [2]	phosphorylation of the cytoplasmic markers (pMEK-1, pVGK+, pS6) ([1]; 20 mg/kg i.p.)	Discrimination Index (D.I.) ([2]; 24 h, 20 mg/kg 1 h before training)	Discrimination Index (D.I.) ([2]; 48 h, vs chance level)	Discrimination Index (D.I.) ([2]; 72 h)	Discrimination Index (D.I.) ([2]; 120 h)	Discrimination Index (D.I.) / performance ([2]; 168 h)
GRKKRRQRRRPPQGGGGGEPRRTEGVGPGVPGEVEMVKGQPFDV (listed as Homo sapiens) [CPP-RB5]	significantly increased	significantly enhanced	at a lesser extent reduced	comparable between the two treatments	greater performances in remembering the object						
CSCC[C@H](NC(=O)[C@H](CCC(=O)O)NC(=O)[C@@H](NC(=O)[C@H](CCC(=O)O)NC(=O)CNC(=O)[C@@H]1CCCN1C(=O)[C@@H](NC(=O)CNC(=O)[C@@H]1CCCN1C(=O)CNC(=O)[C@@H](NC(=O)CNC(=O)[C@H](CCC(=O)O)NC(=O)[C@@H](NC(=O)[C@H](CCCNC(=N)N)NC(=O)[C@H](CCCNC(=N)N)NC(=O)[C@@H]1CCCN1C(=O)[C@H](CCC(=O)O)NC(=O)CNC(=O)CNC(=O)CNC(=O)CNC(=O)CNC(=O)[C@H](CCC(N)=O)NC(=O)[C@@H]1CCCN1C(=O)[C@@H]1CCCN1C(=O)[C@H](CCCNC(=N)N)NC(=O)[C@H](CCCNC(=N)N)NC(=O)[C@H](CCCNC(=N)N)NC(=O)[C@H](CCC(N)=O)NC(=O)[C@H](CCCNC(=N)N)NC(=O)[C@H](CCCNC(=N)N)NC(=O)[C@H](CCCCN)NC(=O)[C@H](CCCCN)NC(=O)[C@H](CCCNC(=N)N)NC(=O)CNC(C)=O)[C@@H](C)O)C(C)C)C(C)C)C(C)C)C(=O)N[C@H](C(=O)N[C@@H](CCCCN)C(=O)NCC(=O)N[C@@H](CCC(N)=O)C(=O)N1CCC[C@H]1C(=O)N[C@@H](Cc1ccccc1)C(=O)N[C@@H](CC(=O)O)C(=O)N[C@@H](C(=O)O)C(C)C)C(C)C [RB5]	selective activation	enhanced			significantly enhanced	did not influence	significantly higher than the Scramble group	greatly above it	remained highly significant	still highly significant	dropped to basal levels indistinguishable from SCR group; also recorded: went down to basal levels indistinguishable from SCR group
